Laboratory results published in ChEMBL document CHEMBL3797140, “Acridin-3,6-dialkyldithiourea hydrochlorides as new photosensitizers for photodynamic therapy of mouse leukemia cells” (Bioorg Med Chem, 2016).
pIC50: −log10 of the molar value. Calls of active or inactive are those of the source. No cut-off for these calls is given here.

What was measured:
L1210 [1] = assay: Induction of necrosis in mouse L1210 cells at 0.5 uM preincubated for 1 hr followed by 1.05 J/cm2 UV-A irradiation measured after 5 hrs by Annexin Red based flow cytometry; format: functional
L1210 [2] = assay: Decrease in ATP level in mouse L1210 cells at 0.5 uM preincubated for 1 hr followed by 1.05 J/cm2 UV-A irradiation measured after 6 hrs by luciferase reporter assay; format: functional; design: scale not given: the % may be the effect or the level left
[3] = Drug uptake in nucleus of mouse L1210 cells at 2 uM preincubated for 1 hr followed by 1.05 J/cm2 UV-A irradiation by SytoRed staining-based flow cytometry; format: ADME, cell-based; settings: l1210, 2 µM
[4] = Drug uptake in mitochondria of mouse L1210 cells at 2 uM preincubated for 1 hr followed by 1.05 J/cm2 UV-A irradiation by MitoRed staining-based flow cytometry; format: ADME; settings: l1210, 2 µM
[5] = Drug uptake in lysosome of mouse L1210 cells at 2 uM preincubated for 1 hr followed by 1.05 J/cm2 UV-A irradiation by LysoTracker staining-based flow cytometry; format: ADME, cell-based; settings: l1210, 2 µM
L1210 [6] = assay: Phototoxicity against mouse L1210 cells assessed as cell viability preincubated for 1 hr followed by 1.05 J/cm2 UV-A irradiation measured after 48 hrs by MTT assay in presence of pepstatin A; format: functional, cell-based
L1210 [7] = assay: Phototoxicity against mouse L1210 cells assessed as cell viability preincubated for 1 hr followed by 1.05 J/cm2 UV-A irradiation measured after 48 hrs by MTT assay in presence of 3-methyladenine; format: functional, cell-based
L1210 [8] = assay: Induction of necrosis in mouse L1210 cells at >= 1 uM preincubated for 1 hr followed by 1.05 J/cm2 UV-A irradiation; format: functional
L1210 [9] = assay: Induction of apoptosis in mouse L1210 cells assessed as caspase 3 activation at 0.5 to 1 uM preincubated for 1 hr followed by 1.05 J/cm2 UV-A irradiation measured after 4 to 6 hrs by Western blot method; format: functional, cell-based
L1210 [10] = assay: Induction of apoptosis in mouse L1210 cells assessed as caspase 9 activation at 1 uM preincubated for 1 hr followed by 1.05 J/cm2 UV-A irradiation measured after 4 to 6 hrs by Western blot method; format: functional, cell-based
L1210 [11] = assay: Induction of apoptosis in mouse L1210 cells assessed as Bax level at 0.5 to 1 uM preincubated for 1 hr followed by 1.05 J/cm2 UV-A irradiation measured after 4 to 6 hrs by Western blot method; format: functional, cell-based
L1210 [12] = assay: Induction of apoptosis in mouse L1210 cells assessed as decrease in Bcl2 level at 0.5 to 1 uM preincubated for 1 hr followed by 1.05 J/cm2 UV-A irradiation measured after 4 to 6 hrs by Western blot method; format: functional, cell-based
L1210 [13] = assay: Induction of autophagy in mouse L1210 cells assessed as accumulation of LC3BII at 0.5 to 1 uM preincubated for 1 hr followed by 1.05 J/cm2 UV-A irradiation measured after 4 to 6 hrs by Western blot method; format: functional, cell-based
L1210 [14] = assay: Induction of apoptosis in mouse L1210 cells assessed as caspase 3 activation at 0.5 uM preincubated for 1 hr measured after 8 hrs by Western blot method in absence of light; format: cell-based; settings: l1210, 8 h
L1210 [15] = assay: Induction of apoptosis in mouse L1210 cells assessed as caspase 9 activation at 0.5 uM preincubated for 1 hr measured after 8 hrs by Western blot method in absence of light; format: cell-based; settings: l1210, 8 h
L1210 [16] = assay: Induction of apoptosis in mouse L1210 cells assessed as Bax level at 0.5 uM preincubated for 1 hr measured after 8 hrs by Western blot method in absence of light; format: cell-based; settings: l1210, 8 h
L1210 [17] = assay: Induction of apoptosis in mouse L1210 cells assessed as decrease in Bcl2 level at 0.5 uM preincubated for 1 hr measured after 8 hrs by Western blot method in absence of light; format: cell-based; settings: l1210, 8 h
L1210 [18] = assay: Induction of autophagy in mouse L1210 cells assessed as accumulation of LC3BII at 0.5 uM preincubated for 1 hr measured after 8 hrs by Western blot method in absence of light; format: cell-based; settings: l1210, 8 h
[19] = Induction of ROS generation measured after UV-A irradiation by spin trapping agent DMPO based EPR spectroscopy; format: physicochemical
[20] = Cytotoxicity against human HL60 cells after 48 hrs by MTT assay; format: functional, cell-based; settings: HL-60, 48 h
[21] = Cytotoxicity against human HL60/ADR cells after 48 hrs by MTT assay; format: functional, cell-based
[22] = Induction of ROS generation measured 2 mins after UV-A irradiation by spin trapping agent DMPO based EPR spectroscopy; format: physicochemical
L1210 [23] = assay: Induction of cell cycle arrest in mouse L1210 cells assessed as accumulation at G1 phase at 0.5 and 1 uM preincubated for 1 hr followed by 1.05 J/cm2 UV-A irradiation measured after 24 hrs by propidium iodide staining-based flow cytometry (reference value: 16.8 +/- 0.6%); format: functional
L1210 [24] = assay: Phototoxicity against mouse L1210 cells assessed as cell viability preincubated with 0.5 nM bafilomycin A1 followed by compound exposure for 1 hr followed by 1.05 J/cm2 UV-A irradiation measured after 48 hrs by MTT assay in presence of pepstatin A; format: functional, cell-based
L1210 [25] = assay: Phototoxicity against mouse L1210 cells assessed as cell viability preincubated with 10 nM chloroquine followed by compound exposure for 1 hr followed by 1.05 J/cm2 UV-A irradiation measured after 48 hrs by MTT assay in presence of pepstatin A; format: functional, cell-based
[26] = Drug uptake in lysosome of mouse L1210 cells at 2 uM preincubated with […] followed by compound exposure for 1 hr followed by 1.05 J/cm2 UV-A irradiation by LysoTracker staining-based flow cytometry; format: ADME, cell-based; settings: l1210, 1 h
[27] = Drug uptake in lysosome of mouse L1210 cells at 2 uM preincubated with 10.5 nM bafilomycin A1 followed by compound exposure for 1 hr followed by 1.05 J/cm2 UV-A irradiation by LysoTracker staining-based flow cytometry; format: ADME, cell-based; settings: l1210, 1 h

- Drug uptake [3]: Active
- Drug uptake [4]: 53%
- Drug uptake [5]: Active
- Activity [19]: Active
- Activity [22]: Active
- Drug uptake [26]: Not Active
- Drug uptake [27]: Not Active
Compound: CCCNC(=S)Nc1ccc2cc3ccc(NC(=S)NCCC)cc3nc2c1.Cl
- Activity (L1210 [1]): 24%
- Activity (L1210 [2]): 30%
- Activity (L1210 [6]): inactive
- Activity (L1210 [7]): inactive
- Activity (L1210 [8]): 95%
- Activity (L1210 [9]): inactive
- Activity (L1210 [10]): Active
- Activity (L1210 [11]): inactive
- Activity (L1210 [12]): Active
- Activity (L1210 [13]): Active
- Activity (L1210 [14]): Non-toxic
- Activity (L1210 [15]): Non-toxic
- Activity (L1210 [16]): Non-toxic
- Activity (L1210 [17]): Non-toxic
- Activity (L1210 [18]): Non-toxic
- pIC50 [20]: 5.14
- pIC50 [21]: 5.14
- Activity (L1210 [23]): Active
- Activity (L1210 [24]): inactive
- Activity (L1210 [25]): inactive
